The text below walks through data of PubChem BioAssay (NCI).

Test systems include 786-0 renal; ACHN renal; COLO 205 colon; HL-60(TB) leukemia; HT29 colon; KM12 colon; M14 melanoma; OVCAR-4 ovarian; SW-620 colon; UACC-62 melanoma.
Test in all cases: inhibition of tumour cell growth, NCI panel, 48 h

“And” between values parts separate entries of the source, which are not always exact repeats. Identical values can stand only once.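 Cells were grown in 96-well plates and exposed to each compound for 48 hours at five concentrations; endpoints were interpolated linearly between bracketing concentrations, or set to the highest concentration if not reached. The concentration for 50% growth inhibition is given as GI50. TGI is the concentration that stops growth completely.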

As to `Cn1ncnc1[C@@H]1c2n[nH]c(=O)c3cc(F)cc(c23)N[C@H]1c1ccc(F)cc1`, the GI50 in the assay on 786-0 renal, in the assay with ACHN renal, in the assay with COLO 205 colon, in the assay with HL-60(TB) leukemia, with HT29 colon and in the assay on KM12 colon was > 100 µM throughout. Besides, the GI50 with M14 melanoma, in the assay with OVCAR-4 ovarian, in the assay with SW-620 colon and with UACC-62 melanoma was > 100 µM each time. Further, the TGI in the assay with 786-0 renal, in the assay with ACHN renal, with COLO 205 colon, in the assay on HL-60(TB) leukemia, in the assay on HT29 colon and in the assay with KM12 colon was > 100 µM in each case. The TGI with M14 melanoma, in the assay with OVCAR-4 ovarian, in the assay with SW-620 colon and in the assay on UACC-62 melanoma was > 100 µM each time.

On to `COC(=O)[C@@H](C)C[C@H](Cc1ccccc1)NC(=O)c1nc([C@@H](C[C@H](C(C)C)N(C)C(=O)[C@@H](NC(=O)[C@H]2C[C@H](O)CCN2C)C(C)C)OC(C)=O)sc1C(C)C`, for which the GI50 was 0.0337 µM in the assay with 786-0 renal; 0.101 µM in the assay with ACHN renal; 0.00692 µM in the assay with COLO 205 colon; 0.00143 µM with HL-60(TB) leukemia; 0.00377 µM with HT29 colon; 0.00473 µM in the assay on KM12 colon. The GI50 in the assay on M14 melanoma is 0.0149 µM; in the assay with OVCAR-4 ovarian, 0.0493 µM; in the assay on SW-620 colon, 0.00533 µM; in the assay with UACC-62 melanoma, 0.00243 µM. In addition, the TGI is 4.65 µM in the assay on 786-0 renal; > 11.1 µM in the assay on ACHN renal; 0.104 µM with COLO 205 colon; 0.0074 µM in the assay on HL-60(TB) leukemia; > 3.99 µM in the assay on HT29 colon; > 3.95 µM in the assay on KM12 colon. In addition, the TGI with M14 melanoma is 1.24 µM; in the assay with OVCAR-4 ovarian it was > 11.1 µM; with SW-620 colon, > 11.1 µM; with UACC-62 melanoma, > 11.1 µM.

With `CS(=O)(=O)OCCN(CCOS(C)(=O)=O)c1ccc(C=Nc2ccc(-c3csc(COc4ccccc4)n3)cc2)cc1`, the TGI is 4.52 µM with 786-0 renal; 2.32 µM in the assay with ACHN renal; 6.98 µM in the assay on COLO 205 colon; 16.2 µM in the assay on HL-60(TB) leukemia; 23.6 µM in the assay with HT29 colon; 19.8 µM with KM12 colon. Besides, the TGI in the assay with M14 melanoma was found to be 28.1 µM; in the assay with OVCAR-4 ovarian it was 49.1 µM; in the assay with SW-620 colon it was 52 µM; in the assay with UACC-62 melanoma, 19.8 µM.

As to `CCOc1ccc(N(C)c2ccc(/C=C/C3=[N+](C)c4ccccc4C3(C)C)cc2)cc1`, the GI50 in the assay with 786-0 renal is 0.562 µM; in the assay with ACHN renal, 0.306 µM; in the assay on COLO 205 colon it was 0.211 µM; in the assay on HL-60(TB) leukemia, 0.059 µM; in the assay on HT29 colon, 0.137 µM; in the assay with KM12 colon, 0.219 µM. The GI50 in the assay with M14 melanoma was 0.366 µM; in the assay with OVCAR-4 ovarian, 0.399 µM; with SW-620 colon, 0.175 µM; in the assay with UACC-62 melanoma it was 0.444 µM. The TGI in the assay with 786-0 renal worked out at 1.92 µM; with ACHN renal, 1.11 µM; in the assay on COLO 205 colon it was 0.81 µM; in the assay on HL-60(TB) leukemia, 0.257 µM; in the assay with HT29 colon, 1.06 µM; in the assay with KM12 colon, 1.05 µM. Besides, the TGI in the assay with M14 melanoma came to 1.73 µM; in the assay on OVCAR-4 ovarian it was 2.18 µM; in the assay with SW-620 colon, 1.19 µM; in the assay with UACC-62 melanoma it was 2.16 µM.

`C=CCC1(O)c2ccccc2C(=O)c2c(OCC(=O)OCC)ccc(OCC(=O)OCC)c21` (stereo not given): the GI50 is > 100 µM with 786-0 renal; > 100 µM in the assay with ACHN renal; > 100 µM with COLO 205 colon; 75.9 µM in the assay with HL-60(TB) leukemia; > 100 µM in the assay on HT29 colon; > 100 µM with KM12 colon. Moreover, the GI50 in the assay on M14 melanoma is > 100 µM; in the assay on OVCAR-4 ovarian, > 100 µM; in the assay on SW-620 colon, > 100 µM; in the assay on UACC-62 melanoma, 64.7 µM. Further, the TGI in the assay with 786-0 renal, with ACHN renal, with COLO 205 colon, with HL-60(TB) leukemia, in the assay on HT29 colon and in the assay with KM12 colon was > 100 µM in each case. In addition, the TGI in the assay on M14 melanoma, with OVCAR-4 ovarian, with SW-620 colon and with UACC-62 melanoma was > 100 µM throughout.

For `COc1nc(NC2OC(COC(C)=O)C(OC(C)=O)C(OC(C)=O)C2OC(C)=O)c(N=CC=Nc2c(NC3OC(COC(C)=O)C(OC(C)=O)C(OC(C)=O)C3OC(C)=O)nc(OC)[nH]c2=O)c(=O)[nH]1` (stereo not given), the TGI in the assay with 786-0 renal, in the assay on ACHN renal, in the assay with COLO 205 colon, in the assay with HL-60(TB) leukemia, with HT29 colon and in the assay on KM12 colon was > 100 µM throughout. Also, the TGI in the assay on M14 melanoma, in the assay on OVCAR-4 ovarian, in the assay with SW-620 colon and in the assay on UACC-62 melanoma was > 100 µM throughout.

With `CC(=O)OCC1C(=O)OCC1C(=O)N1Cc2cc3ccccc3nc2C1` (stereo not given), the TGI turned out to be 3.84 µM in the assay on 786-0 renal; 3.39 µM in the assay with ACHN renal; 2.04 µM in the assay with COLO 205 colon; 11.9 µM in the assay with HL-60(TB) leukemia; 10.3 µM in the assay on HT29 colon; 30.4 µM in the assay with KM12 colon. In addition, the TGI turned out to be 3.67 µM with M14 melanoma, 4.89 µM in the assay on OVCAR-4 ovarian, 1.68 µM in the assay on SW-620 colon and 7.99 µM with UACC-62 melanoma.

With `Cc1ccc(NC(=O)c2ccc(CN3CCN(C)CC3)cc2)cc1Nc1nc(-c2cccnc2)cs1`, the GI50 was 3.53 µM and 2.84 µM with 786-0 renal; 11.7 µM and 4.15 µM in the assay with ACHN renal; 8.14 µM and 3.69 µM in the assay on COLO 205 colon; 2.25 µM and 0.4 µM with HL-60(TB) leukemia; 3.5 µM and 3.23 µM with HT29 colon; 9.85 µM and 6.72 µM in the assay on KM12 colon. For the same molecule, the GI50 in the assay on M14 melanoma was 7.66 µM and 3.44 µM; in the assay on OVCAR-4 ovarian, 11.6 µM and 7.8 µM; in the assay with SW-620 colon it was 5.68 µM and 4.58 µM; with UACC-62 melanoma, 15 µM and 8.56 µM. The TGI was 11.5 µM and 7.92 µM in the assay on 786-0 renal; 24.7 µM and > 10 µM with ACHN renal; 22.6 µM and > 10 µM in the assay with COLO 205 colon; 6.96 µM and 5.47 µM with HL-60(TB) leukemia; 13.7 µM and > 10 µM in the assay with HT29 colon; 23.2 µM and > 10 µM in the assay with KM12 colon. Also, the TGI in the assay on M14 melanoma is 21.2 µM and > 10 µM; in the assay on OVCAR-4 ovarian, 26.5 µM and > 10 µM; in the assay with SW-620 colon, 19.5 µM and > 10 µM; with UACC-62 melanoma, 30.4 µM and > 10 µM.

Take `O=C(O)/C=C/c1ccc(O)c(O)c1`: the TGI with 786-0 renal, in the assay with ACHN renal, in the assay with COLO 205 colon, with HL-60(TB) leukemia, in the assay with HT29 colon and in the assay with KM12 colon was > 100 µM in each case. In addition, the TGI in the assay on M14 melanoma is > 100 µM; in the assay with OVCAR-4 ovarian, > 100 µM; with SW-620 colon, > 76.3 µM; in the assay with UACC-62 melanoma it was > 100 µM.
